Values quoted from earlier work, collected in PMC9851200, “Multiparameter phenotypic screening for endogenous TFEB and TFE3 translocation identifies novel chemical series modulating lysosome function” (Autophagy, 2022).

Assays:
Parameters in all cases: method as in original PKIS2 published data
[1] = biological target: kinases (KINOMEscan panel) (Homo sapiens, UniProt Q07912); conditions: TNK2; Published KINOMEscan; ref original PKIS2 published data; cited from earlier work
[2] = biological target: T1, kinases (KINOMEscan panel) (Homo sapiens, UniProt Q13546); conditions: kinase RIPK1; Published KINOMEscan; ref original PKIS2 published data; cited from earlier work
T1 sequence (Q13546 1-671): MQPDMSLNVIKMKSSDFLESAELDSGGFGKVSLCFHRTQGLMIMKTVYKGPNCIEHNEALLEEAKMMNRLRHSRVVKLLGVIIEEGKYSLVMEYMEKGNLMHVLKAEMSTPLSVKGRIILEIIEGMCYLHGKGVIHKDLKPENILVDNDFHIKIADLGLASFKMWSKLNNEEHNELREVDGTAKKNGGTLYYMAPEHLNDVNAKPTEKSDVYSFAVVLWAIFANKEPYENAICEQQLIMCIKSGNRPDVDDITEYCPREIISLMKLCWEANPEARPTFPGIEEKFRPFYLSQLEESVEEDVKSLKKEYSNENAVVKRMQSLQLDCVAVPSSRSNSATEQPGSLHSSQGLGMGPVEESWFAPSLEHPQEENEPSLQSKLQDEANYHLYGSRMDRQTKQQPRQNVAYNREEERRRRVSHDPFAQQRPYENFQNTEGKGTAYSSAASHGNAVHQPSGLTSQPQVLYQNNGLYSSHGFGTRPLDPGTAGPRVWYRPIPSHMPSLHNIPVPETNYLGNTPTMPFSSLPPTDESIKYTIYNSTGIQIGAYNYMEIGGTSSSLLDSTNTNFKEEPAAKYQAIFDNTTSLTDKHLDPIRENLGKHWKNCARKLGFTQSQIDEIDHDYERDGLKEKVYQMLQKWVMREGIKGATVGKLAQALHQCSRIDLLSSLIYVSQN

[3] = biological target: kinases (KINOMEscan panel) (Homo sapiens, UniProt P06213); conditions: kinase INSR; Published KINOMEscan; ref original PKIS2 published data; cited from earlier work
[4] = biological target: kinases (KINOMEscan panel) (Homo sapiens, UniProt O43293); conditions: DAPK3; Published KINOMEscan; ref original PKIS2 published data; cited from earlier work
[5] = biological target: kinases (KINOMEscan panel) (Homo sapiens, UniProt Q13555); conditions: CAMK2G; Published KINOMEscan; ref original PKIS2 published data; cited from earlier work
[6] = biological target: T2, kinases (KINOMEscan panel) (Homo sapiens, UniProt Q13873); conditions: kinase BMPR2; Published KINOMEscan; ref original PKIS2 published data; cited from earlier work
T2 sequence (Q13873 27-1038): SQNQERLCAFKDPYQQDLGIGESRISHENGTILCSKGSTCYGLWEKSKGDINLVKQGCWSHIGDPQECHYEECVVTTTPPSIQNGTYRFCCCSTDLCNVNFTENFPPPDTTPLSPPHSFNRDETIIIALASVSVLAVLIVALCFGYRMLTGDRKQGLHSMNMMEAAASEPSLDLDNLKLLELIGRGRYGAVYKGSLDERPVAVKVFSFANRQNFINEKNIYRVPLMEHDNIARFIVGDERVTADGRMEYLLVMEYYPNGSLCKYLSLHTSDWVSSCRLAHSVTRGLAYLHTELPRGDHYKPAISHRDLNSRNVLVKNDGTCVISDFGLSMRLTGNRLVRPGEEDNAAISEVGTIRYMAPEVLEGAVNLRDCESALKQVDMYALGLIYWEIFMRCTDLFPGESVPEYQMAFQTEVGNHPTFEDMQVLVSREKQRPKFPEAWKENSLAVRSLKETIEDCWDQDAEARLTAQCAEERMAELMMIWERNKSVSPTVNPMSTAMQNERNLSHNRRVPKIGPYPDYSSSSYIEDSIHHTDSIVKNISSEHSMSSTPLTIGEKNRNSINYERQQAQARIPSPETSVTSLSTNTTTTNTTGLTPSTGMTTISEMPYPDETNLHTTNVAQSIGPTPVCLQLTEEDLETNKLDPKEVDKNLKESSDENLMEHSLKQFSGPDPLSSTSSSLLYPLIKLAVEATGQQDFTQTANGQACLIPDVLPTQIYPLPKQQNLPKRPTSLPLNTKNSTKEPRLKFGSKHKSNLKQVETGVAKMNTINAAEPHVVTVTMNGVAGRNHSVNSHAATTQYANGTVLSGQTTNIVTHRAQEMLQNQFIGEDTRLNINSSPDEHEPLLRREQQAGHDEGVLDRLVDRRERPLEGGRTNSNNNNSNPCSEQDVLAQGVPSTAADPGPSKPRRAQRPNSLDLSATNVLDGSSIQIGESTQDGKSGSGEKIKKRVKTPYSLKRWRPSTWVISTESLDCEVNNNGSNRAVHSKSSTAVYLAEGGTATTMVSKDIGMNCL

[7] = biological target: kinases (KINOMEscan panel) (Homo sapiens, UniProt P42685); conditions: kinase FRK; Published KINOMEscan; ref original PKIS2 published data; cited from earlier work
[8] = biological target: kinases (KINOMEscan panel) (Homo sapiens, UniProt Q13554); conditions: kinase CAMK2B; Published KINOMEscan; ref original PKIS2 published data; cited from earlier work
Sequence of kinases (KINOMEscan panel) (Homo sapiens, UniProt Q13554) (Q13554 whole entry): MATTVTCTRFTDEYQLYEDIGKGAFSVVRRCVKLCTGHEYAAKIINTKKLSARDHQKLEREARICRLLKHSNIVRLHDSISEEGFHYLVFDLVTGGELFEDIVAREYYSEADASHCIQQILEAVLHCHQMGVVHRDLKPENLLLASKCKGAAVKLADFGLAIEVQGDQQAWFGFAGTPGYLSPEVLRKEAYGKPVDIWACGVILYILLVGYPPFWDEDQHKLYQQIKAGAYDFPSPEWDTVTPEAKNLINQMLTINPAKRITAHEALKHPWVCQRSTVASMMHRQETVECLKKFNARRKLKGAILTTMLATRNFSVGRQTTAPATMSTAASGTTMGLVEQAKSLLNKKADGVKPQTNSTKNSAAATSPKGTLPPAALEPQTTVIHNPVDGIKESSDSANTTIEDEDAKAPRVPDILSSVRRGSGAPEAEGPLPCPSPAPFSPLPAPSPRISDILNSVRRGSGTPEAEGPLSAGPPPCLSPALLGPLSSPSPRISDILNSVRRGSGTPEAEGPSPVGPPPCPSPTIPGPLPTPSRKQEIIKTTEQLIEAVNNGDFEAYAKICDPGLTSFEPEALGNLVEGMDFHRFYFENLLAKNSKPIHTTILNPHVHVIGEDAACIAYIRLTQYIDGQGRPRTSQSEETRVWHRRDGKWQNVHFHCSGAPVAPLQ

Sequence of kinases (KINOMEscan panel) (Homo sapiens, UniProt Q07912) (Q07912 whole entry): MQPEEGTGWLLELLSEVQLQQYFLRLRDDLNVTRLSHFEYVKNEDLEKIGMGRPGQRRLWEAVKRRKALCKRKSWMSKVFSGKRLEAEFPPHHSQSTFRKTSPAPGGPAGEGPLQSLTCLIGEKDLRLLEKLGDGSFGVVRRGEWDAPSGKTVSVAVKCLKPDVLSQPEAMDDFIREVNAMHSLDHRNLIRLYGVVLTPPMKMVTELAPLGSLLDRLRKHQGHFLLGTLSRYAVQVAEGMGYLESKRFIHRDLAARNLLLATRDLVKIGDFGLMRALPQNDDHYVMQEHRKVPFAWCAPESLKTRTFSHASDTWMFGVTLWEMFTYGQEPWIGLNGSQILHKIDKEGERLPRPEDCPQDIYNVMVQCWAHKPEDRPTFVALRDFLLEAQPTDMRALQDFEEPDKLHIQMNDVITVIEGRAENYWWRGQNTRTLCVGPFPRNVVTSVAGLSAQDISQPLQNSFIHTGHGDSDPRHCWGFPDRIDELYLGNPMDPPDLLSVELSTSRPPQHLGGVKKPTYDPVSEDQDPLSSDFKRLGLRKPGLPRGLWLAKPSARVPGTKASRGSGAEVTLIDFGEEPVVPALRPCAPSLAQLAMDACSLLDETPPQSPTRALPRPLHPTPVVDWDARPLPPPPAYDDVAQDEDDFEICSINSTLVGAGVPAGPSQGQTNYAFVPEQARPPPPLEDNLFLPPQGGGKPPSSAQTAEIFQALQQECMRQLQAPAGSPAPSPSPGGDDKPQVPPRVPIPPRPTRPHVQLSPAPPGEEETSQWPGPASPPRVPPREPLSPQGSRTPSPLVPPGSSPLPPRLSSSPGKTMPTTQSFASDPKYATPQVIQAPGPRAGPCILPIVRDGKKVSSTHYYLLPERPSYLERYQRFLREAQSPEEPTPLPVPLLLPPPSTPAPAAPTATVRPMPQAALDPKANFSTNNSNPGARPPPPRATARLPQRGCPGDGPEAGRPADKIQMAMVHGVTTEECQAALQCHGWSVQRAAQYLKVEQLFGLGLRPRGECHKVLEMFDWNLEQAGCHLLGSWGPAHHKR
Sequence of kinases (KINOMEscan panel) (Homo sapiens, UniProt Q13555) (Q13555 whole entry): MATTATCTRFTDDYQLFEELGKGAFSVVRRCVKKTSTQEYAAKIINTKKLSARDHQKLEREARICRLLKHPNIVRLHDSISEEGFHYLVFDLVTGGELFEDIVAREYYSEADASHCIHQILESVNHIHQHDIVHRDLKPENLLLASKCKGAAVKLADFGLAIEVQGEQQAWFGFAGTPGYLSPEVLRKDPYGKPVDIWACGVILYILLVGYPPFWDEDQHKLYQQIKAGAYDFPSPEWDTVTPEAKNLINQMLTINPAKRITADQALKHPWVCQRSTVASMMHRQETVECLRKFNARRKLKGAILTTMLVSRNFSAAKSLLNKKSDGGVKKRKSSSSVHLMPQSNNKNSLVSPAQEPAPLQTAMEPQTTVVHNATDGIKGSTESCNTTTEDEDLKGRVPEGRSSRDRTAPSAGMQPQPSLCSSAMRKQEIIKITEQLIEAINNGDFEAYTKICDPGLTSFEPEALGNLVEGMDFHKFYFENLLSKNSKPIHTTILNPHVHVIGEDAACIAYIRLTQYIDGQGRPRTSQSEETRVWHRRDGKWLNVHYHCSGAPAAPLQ
Sequence of kinases (KINOMEscan panel) (Homo sapiens, UniProt P06213) (P06213 28-1382): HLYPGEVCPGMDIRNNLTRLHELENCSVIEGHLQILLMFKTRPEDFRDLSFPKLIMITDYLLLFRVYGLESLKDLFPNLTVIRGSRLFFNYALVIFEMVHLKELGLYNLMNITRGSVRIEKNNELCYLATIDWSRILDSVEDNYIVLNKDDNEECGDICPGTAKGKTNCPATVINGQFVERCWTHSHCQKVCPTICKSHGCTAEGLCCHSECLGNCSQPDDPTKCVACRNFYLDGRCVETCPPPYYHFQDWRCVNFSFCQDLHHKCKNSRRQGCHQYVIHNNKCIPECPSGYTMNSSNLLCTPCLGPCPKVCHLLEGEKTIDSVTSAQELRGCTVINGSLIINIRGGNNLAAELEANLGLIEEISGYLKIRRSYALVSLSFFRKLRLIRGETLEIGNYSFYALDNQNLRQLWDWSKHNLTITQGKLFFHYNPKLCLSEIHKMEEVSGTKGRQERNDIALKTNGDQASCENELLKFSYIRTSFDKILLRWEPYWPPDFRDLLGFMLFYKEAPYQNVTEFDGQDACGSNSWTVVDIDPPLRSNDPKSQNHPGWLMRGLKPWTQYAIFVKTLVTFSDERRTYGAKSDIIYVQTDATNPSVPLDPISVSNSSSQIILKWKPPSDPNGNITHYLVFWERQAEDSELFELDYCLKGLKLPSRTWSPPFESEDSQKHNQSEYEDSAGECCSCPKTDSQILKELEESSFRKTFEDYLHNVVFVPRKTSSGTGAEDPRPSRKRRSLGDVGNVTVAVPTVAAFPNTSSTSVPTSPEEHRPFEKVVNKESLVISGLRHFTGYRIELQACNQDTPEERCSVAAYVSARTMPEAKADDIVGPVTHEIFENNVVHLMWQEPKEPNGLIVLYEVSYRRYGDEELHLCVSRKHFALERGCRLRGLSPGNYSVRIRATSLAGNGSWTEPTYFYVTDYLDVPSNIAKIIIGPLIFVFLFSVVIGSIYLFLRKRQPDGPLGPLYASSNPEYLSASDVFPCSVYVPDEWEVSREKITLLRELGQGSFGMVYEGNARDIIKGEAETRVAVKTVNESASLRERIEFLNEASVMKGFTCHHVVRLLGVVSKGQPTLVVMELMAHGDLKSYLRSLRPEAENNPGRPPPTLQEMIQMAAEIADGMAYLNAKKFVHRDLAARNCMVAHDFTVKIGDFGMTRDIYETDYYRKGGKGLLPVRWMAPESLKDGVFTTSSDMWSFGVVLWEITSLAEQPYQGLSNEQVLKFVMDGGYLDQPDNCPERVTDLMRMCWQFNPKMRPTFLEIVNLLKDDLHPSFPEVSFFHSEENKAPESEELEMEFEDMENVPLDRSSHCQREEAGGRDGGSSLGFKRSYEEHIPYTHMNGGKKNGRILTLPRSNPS
Sequence of kinases (KINOMEscan panel) (Homo sapiens, UniProt O43293) (O43293 whole entry): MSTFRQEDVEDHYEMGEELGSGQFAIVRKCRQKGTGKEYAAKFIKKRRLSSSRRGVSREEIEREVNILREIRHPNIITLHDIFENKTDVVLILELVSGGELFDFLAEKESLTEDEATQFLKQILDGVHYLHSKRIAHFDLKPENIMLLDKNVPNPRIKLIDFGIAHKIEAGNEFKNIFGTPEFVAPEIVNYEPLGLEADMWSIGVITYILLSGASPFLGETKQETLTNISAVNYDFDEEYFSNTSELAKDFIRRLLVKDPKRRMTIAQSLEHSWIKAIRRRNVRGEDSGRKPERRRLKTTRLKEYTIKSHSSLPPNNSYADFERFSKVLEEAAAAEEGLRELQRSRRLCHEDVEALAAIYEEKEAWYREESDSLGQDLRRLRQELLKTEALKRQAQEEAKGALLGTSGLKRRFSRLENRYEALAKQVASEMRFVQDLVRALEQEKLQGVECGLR
Sequence of kinases (KINOMEscan panel) (Homo sapiens, UniProt P42685) (P42685 whole entry): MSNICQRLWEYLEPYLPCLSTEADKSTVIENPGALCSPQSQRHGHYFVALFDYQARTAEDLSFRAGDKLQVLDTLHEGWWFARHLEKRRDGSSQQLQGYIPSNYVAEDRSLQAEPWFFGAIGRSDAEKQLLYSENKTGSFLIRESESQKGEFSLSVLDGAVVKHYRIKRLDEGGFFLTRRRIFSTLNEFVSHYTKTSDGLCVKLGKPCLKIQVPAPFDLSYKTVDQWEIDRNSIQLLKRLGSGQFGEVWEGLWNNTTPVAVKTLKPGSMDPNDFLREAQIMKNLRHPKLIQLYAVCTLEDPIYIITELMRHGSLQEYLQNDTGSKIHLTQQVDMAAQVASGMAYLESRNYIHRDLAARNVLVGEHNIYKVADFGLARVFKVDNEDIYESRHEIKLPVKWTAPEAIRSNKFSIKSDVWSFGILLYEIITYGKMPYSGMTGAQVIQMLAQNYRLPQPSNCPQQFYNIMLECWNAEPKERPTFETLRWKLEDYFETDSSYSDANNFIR

For `Cc1cccc(-c2nc(Nc3ccncc3)c3ccccc3n2)n1` [NK215], the “KINOMEscan TNK2” value [1] is listed as 0, the “KINOMEscan RIPK1” value [2] is listed as 4 and the “KINOMEscan INSR” value [3] is listed as 7. For the same molecule, the “KINOMEscan DAPK3” value [4] was 17, the “KINOMEscan CAMK2G” value [5] was 0 and the “KINOMEscan BMPR2” value [6] was 0. For the same molecule, the “KINOMEscan FRK” value [7] was 15 and the “KINOMEscan CAMK2B” value [8] was 0.
